Assays:
[1] = LNP zeta potential (Zetasizer); type: physicochemical; conditions: LNP with cirRNA (SEQ ID NO: 1)
Outline: (§1)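 Dynamic light scattering and zeta potential measurements were run on PBS-dialyzed LNPs, which had been formed by microfluidic mixing at 12 ml/min with final lipid at 1.5 mM to 6 mM. RNA content and percent encapsulation were determined by Ribogreen with and without Triton X-100.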

RAW 264.7 cells [2] = test: In vitro toxicity (CellTiter-Glo cell viability), RAW 264.7; type: cell-based; conditions: cirRNA (SEQ ID NO: 1) LNPs; RAW 264.7 cells;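 note: percent of untreated cells luminescence signal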
Outline: (§2)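 Toxicity of RNA-LNPs (1 μg/mL) is reported as cell viability, calculated from CellTiter-Glo luminescence measured at 72 hours after transfection.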

Hep G2 cells [3] = test: In vitro toxicity (CellTiter-Glo cell viability), Hep G2; type: cell-based; conditions: cirRNA (SEQ ID NO: 1) LNPs; Hep G2 cells;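 note: percent of untreated cells luminescence signal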
Outline: as §2

[4] = LNP size and polydispersity index (PDI) by dynamic light scattering; type: physicochemical; conditions: LNP with cirRNA (SEQ ID NO: 1); for Size: in nm (unit assumed)
Outline: as §1

BALB/C mice = test: In vivo expression, whole-body luminescence (IVIS); conditions: cirRNA (SEQ ID NO: 1) LNPs, BALB/C mice
Description: 6-8 week old, female BALB/C mice were injected with 0.05 mg*kg-1 of RNA-LNPs encoding for firefly-luciferase by intravenous injection. At 6 hours post injection, animals were intraperitoneally injected with 15 mg/ml of Luciferin substrate and whole-body luminescence was determined by a bioluminescent in vivo imaging system (IVIS).

Hep G2 cells [5] = test: In vitro expression of firefly-luciferase, Hep G2; type: cell-based; conditions: cirRNA (SEQ ID NO: 1) LNPs; firefly-luciferase luminescence; Hep G2 cells
Outline: (§3)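 Transfection used 100 ng/mL luciferase-encoding RNA-LNPs; activity in lysates was determined at 72 h.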

[6] = RNA encapsulation efficacy by Quant-IT Ribogreen kit; type: physicochemical; conditions: LNP with cirRNA (SEQ ID NO: 1)
Outline: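 Encapsulation efficacy came from Ribogreen fluorescence of LNPs compared with Triton X-100-lysed LNPs. The particles carried luciferase-encoding circular or linear RNA at an ionizable lipid:ribonucleotide ratio of 15 or 6.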

RAW 264.7 cells [7] = test: In vitro expression of firefly-luciferase, RAW 264.7; type: cell-based; conditions: cirRNA (SEQ ID NO: 1) LNPs; firefly-luciferase luminescence; RAW 264.7 cells
Outline: as §3

Question: Which “Zeta (mV)” value [1] does the source give for `CCCCC/C=C\CCOC(=O)CCCCCN(CCCCCCCCOC(=O)C(CCCCCC)CCCCCCCC)CCOC(=O)NCCN1CCCC1` (stereo not drawn) [Lipid 191] here?
Answer: 12.32 mV

Question: What about the “In vitro Viability RAW” value (RAW 264.7 cells [2]) of the same compound?
Answer: 4%

Question: And the “In vitro Viability HepG2” value (Hep G2 cells [3])?
Answer: 92%

Question: What about the PDI [4] of the same compound?
Answer: 0.2327

Question: And the Size [4]?
Answer: 79.79

Question: And the “In vivo Expression (Whole Body)” value (BALB/C mice)?
Answer: 1.02E+07

Question: And the “In vitro Expression HepG2” value (Hep G2 cells [5])?
Answer: 4.43E+04

Question: What about the “Encapsulation Efficiency %” value [6] of the same compound?
Answer: 91%

Question: And the “In vitro Expression RAW” value (RAW 264.7 cells [7])?
Answer: 1.22E+03

Question: Which “Zeta (mV)” value [1] does the source give for `CCCCC/C=C\CCOC(=O)CCCCCN(CCCCCCCCOC(=O)C(CCCCCC)CCCCCCCC)CCOC(=O)NCCN1CCCCC1` (stereo not drawn) [Lipid 192] here?
Answer: −7.77 mV

Question: And the “In vitro Viability RAW” value (RAW 264.7 cells [2])?
Answer: 86%

Question: What about the “In vitro Viability HepG2” value (Hep G2 cells [3]) of the same compound?
Answer: 94%

Question: And the PDI [4]?
Answer: 0.1344

Question: What about the Size [4] of the same compound?
Answer: 76.52

Question: What about the “In vivo Expression (Whole Body)” value (BALB/C mice) of the same compound?
Answer: 8.52E+07

Question: And the “In vitro Expression HepG2” value (Hep G2 cells [5])?
Answer: 4.18E+04

Question: And the “Encapsulation Efficiency %” value [6]?
Answer: 92%

Question: And the “In vitro Expression RAW” value (RAW 264.7 cells [7])?
Answer: 8.42E+03

Question: With `CCCCCCCCCC(=O)OCCCCCCCN(CCCCCCCCOC(=O)C(CCCCCC)CCCCCCCC)CCOC(=O)NCCCN(C)C` (stereo not drawn) [Lipid 193] as the compound, how does the “Zeta (mV)” value [1] read?
Answer: 15.29 mV

Question: And the “In vitro Viability RAW” value (RAW 264.7 cells [2])?
Answer: 3%

Question: What about the “In vitro Viability HepG2” value (Hep G2 cells [3]) of the same compound?
Answer: 94%

Question: And the PDI [4]?
Answer: 0.3634

Question: And the Size [4]?
Answer: 66.71

Question: And the “In vivo Expression (Whole Body)” value (BALB/C mice)?
Answer: 1.00E+06

Question: And the “In vitro Expression HepG2” value (Hep G2 cells [5])?
Answer: 5.28E+05

Question: What about the “Encapsulation Efficiency %” value [6] of the same compound?
Answer: 94%

Question: And the “In vitro Expression RAW” value (RAW 264.7 cells [7])?
Answer: 1.70E+03

Question: Which “Zeta (mV)” value [1] does the source give for `CCCCCCCCCC(=O)OCCCCCCCN(CCCCCCCCOC(=O)C(CCCCCC)CCCCCCCC)CCOC(=O)NCc1ncc[nH]1` (stereo not drawn) [Lipid 198] here?
Answer: −3.471 mV

Question: And the “In vitro Viability RAW” value (RAW 264.7 cells [2])?
Answer: 90%

Question: And the “In vitro Viability HepG2” value (Hep G2 cells [3])?
Answer: 104%

Question: And the PDI [4]?
Answer: 0.2199

Question: And the Size [4]?
Answer: 64.1

Question: What about the “In vivo Expression (Whole Body)” value (BALB/C mice) of the same compound?
Answer: 9.90E+06

Question: And the “In vitro Expression HepG2” value (Hep G2 cells [5])?
Answer: 2.19E+04

Question: And the “Encapsulation Efficiency %” value [6]?
Answer: 94%

Question: What about the “In vitro Expression RAW” value (RAW 264.7 cells [7]) of the same compound?
Answer: 8.39E+04

Question: With `CCCCCCCCCC(=O)OCCCCCCCN(CCCCCCCCOC(=O)C(CCCCCC)CCCCCCCC)CCOC(=O)NCCCN(CC)CC` (stereo not drawn) [Lipid 199] as the compound, how does the “Zeta (mV)” value [1] read?
Answer: 13.62 mV

Question: What about the “In vitro Viability RAW” value (RAW 264.7 cells [2]) of the same compound?
Answer: 0%

Question: And the “In vitro Viability HepG2” value (Hep G2 cells [3])?
Answer: 87%

Question: And the PDI [4]?
Answer: 0.436

Question: And the Size [4]?
Answer: 97.91

Question: And the “In vivo Expression (Whole Body)” value (BALB/C mice)?
Answer: 3.44E+05

Question: And the “In vitro Expression HepG2” value (Hep G2 cells [5])?
Answer: 3.74E+05

Question: What about the “Encapsulation Efficiency %” value [6] of the same compound?
Answer: 94%

Question: And the “In vitro Expression RAW” value (RAW 264.7 cells [7])?
Answer: 1.29E+03

Question: For `CCCCCCCCCC(=O)OCCCCCCCN(CCCCCCCCOC(=O)C(CCCCCC)CCCCCCCC)CCOC(=O)NCCN1CCN(C)CC1` (stereo not drawn) [Lipid 200], which “Zeta (mV)” value [1] is on record?
Answer: 7.27 mV

Question: What about the “In vitro Viability RAW” value (RAW 264.7 cells [2]) of the same compound?
Answer: 0%

Question: And the “In vitro Viability HepG2” value (Hep G2 cells [3])?
Answer: 103%

Question: And the PDI [4]?
Answer: 0.2967

Question: What about the Size [4] of the same compound?
Answer: 82.06

Question: What about the “In vivo Expression (Whole Body)” value (BALB/C mice) of the same compound?
Answer: 6.79E+05

Question: What about the “In vitro Expression HepG2” value (Hep G2 cells [5]) of the same compound?
Answer: 4.46E+05

Question: And the “Encapsulation Efficiency %” value [6]?
Answer: 95%

Question: And the “In vitro Expression RAW” value (RAW 264.7 cells [7])?
Answer: 4.45E+04

Question: Which “Zeta (mV)” value [1] does the source give for `CCCCCCCCCC(=O)OCCCCCCCCN(CCCCCCCCOC(=O)CCCCCCCCC)CCOC(=O)NCCN(C)C` [Lipid 202] here?
Answer: 16.36 mV

Question: And the “In vitro Viability RAW” value (RAW 264.7 cells [2])?
Answer: 92%

Question: And the “In vitro Viability HepG2” value (Hep G2 cells [3])?
Answer: 94%

Question: And the PDI [4]?
Answer: 0.1932

Question: And the Size [4]?
Answer: 60.75

Question: And the “In vivo Expression (Whole Body)” value (BALB/C mice)?
Answer: 2.33E+05

Question: And the “In vitro Expression HepG2” value (Hep G2 cells [5])?
Answer: 2.49E+05

Question: And the “Encapsulation Efficiency %” value [6]?
Answer: 93%

Question: What about the “In vitro Expression RAW” value (RAW 264.7 cells [7]) of the same compound?
Answer: 3.35E+02

Question: Which “Zeta (mV)” value [1] does the source give for `CCCCCCCCCC(=O)OCCCCCCCCN(CCCCCCCCOC(=O)CCCCCCCCC)CCOC(=O)NCc1ncc[nH]1` [Lipid 203] here?
Answer: −0.09389 mV

Question: And the “In vitro Viability RAW” value (RAW 264.7 cells [2])?
Answer: 91%

Question: And the “In vitro Viability HepG2” value (Hep G2 cells [3])?
Answer: 103%

Question: And the PDI [4]?
Answer: 0.08783

Question: What about the Size [4] of the same compound?
Answer: 98.65

Question: What about the “In vivo Expression (Whole Body)” value (BALB/C mice) of the same compound?
Answer: 6.84E+06

Question: And the “In vitro Expression HepG2” value (Hep G2 cells [5])?
Answer: 1.12E+04

Question: What about the “Encapsulation Efficiency %” value [6] of the same compound?
Answer: 73%

Question: And the “In vitro Expression RAW” value (RAW 264.7 cells [7])?
Answer: 7.82E+04

Question: Which “Zeta (mV)” value [1] does the source give for `CCCCCCCCCC(=O)OCCCCCCCCN(CCCCCCCCOC(=O)CCCCCCCCC)CCOC(=O)NCCN1CCN(C)CC1` [Lipid 205] here?
Answer: 18.81 mV

Question: What about the “In vitro Viability RAW” value (RAW 264.7 cells [2]) of the same compound?
Answer: 95%

Question: What about the “In vitro Viability HepG2” value (Hep G2 cells [3]) of the same compound?
Answer: 94%

Question: What about the PDI [4] of the same compound?
Answer: 0.1521

Question: What about the Size [4] of the same compound?
Answer: 61.16

Question: And the “In vivo Expression (Whole Body)” value (BALB/C mice)?
Answer: 6.61E+05

Question: And the “In vitro Expression HepG2” value (Hep G2 cells [5])?
Answer: 5.81E+05

Question: And the “Encapsulation Efficiency %” value [6]?
Answer: 94%

Question: And the “In vitro Expression RAW” value (RAW 264.7 cells [7])?
Answer: 7.09E+03

Reference: US12691070B2, “Cationic lipids and preparation method thereof” (RiboX Therapeutics HK Limited, priority 2023, dated 2026)
